Here are results for four molecules from ChEMBL document CHEMBL1765060, “Synthesis, characterization, and biological evaluation of novel diclofenac prodrugs” (J Med Chem, 2011).

The conditions of series [1]: buffer, pH 9.
Series [2] deals with Rattus norvegicus. Put plainly: Gastrointestinal toxicity in Wistar rat assessed as ulcer index at 100 mg/kg, po. In kind it is organism-based. Set-up: dose 100 mg/kg, route oral. Particulars: in vivo.
The nature of series [3]: physchem. The conditions noted are these: octanol/0.1 M citric acid buffer, pH 3.
The conditions of series [4]: buffer, pH 7.4.
In series [5] the test system is Rattus norvegicus. In words: Antiinflammatory activity in Wistar rat assessed as inhibition of carrageenan-induced paw edema at 100 mg/kg, po administered 1 hr before carrageenan challenge measured after 180 mins. In kind it is functional. More on the design: scale not given: the % may be the effect or the level left. Background: The carrageenan paw model is a standard test of acute inflammation.

For series [6], the system named is Rattus norvegicus. Put plainly: Gastrointestinal toxicity in Wistar rat assessed as ulcer area of >3 mm diameter at 100 mg/kg, po. The series is classed as organism-based. More on the design: dose 100 mg/kg, route oral. The conditions noted are these: in vivo.
The nature of series [7]: Metabolic stability in rat liver microsomes assessed as compound remaining after 30 mins by HPLC analysis. The series is classed as ADME, Microsome. The conditions noted are these: read-out: Stability. In general terms: Liver microsomes are vesicles of endoplasmic reticulum, rich in cytochrome P450 enzymes.
Series [8] is described as follows: Metabolic stability in rat liver microsomes assessed as compound remaining after 60 mins by HPLC analysis. In kind it is ADME, Microsome. The conditions noted are these: read-out: Stability.
The conditions of series [9]: buffer, pH 3.
The conditions of series [10]: buffer, pH 1.
The subject of series [11] is Rattus norvegicus. Put plainly: Gastrointestinal toxicity in Wistar rat assessed as ulcer area of 1-3 mm diameter at 100 mg/kg, po. In kind it is organism-based. More on the design: dose 100 mg/kg, route oral. Particulars: in vivo.
Series [12] is described as follows: physchem. Particulars: octanol/0.2 M phosphate buffer, pH 7.4.
Series [13] in a line: Aqueous solubility of the compound in acetate buffer at pH 5.5 by HPLC analysis.
The nature of series [14]: Metabolic stability in rat plasma assessed as compound remaining after 120 mins by HPLC analysis. The series is classed as ADME, cell-free. Particulars: read-out: Stability.
Series [15] has as its system Rattus norvegicus. Put plainly: Gastrointestinal toxicity in Wistar rat assessed as ulcer area of <1 mm diameter at 100 mg/kg, po. The series is classed as organism-based. More on the design: dose 100 mg/kg, route oral. Particulars: in vivo.
The nature of series [16]: Metabolic stability in rat plasma assessed as compound remaining after 60 mins by HPLC analysis. The series is classed as ADME, cell-free. Particulars: read-out: Stability.
For series [17], the system named is Rattus norvegicus. In words: Gastrointestinal toxicity in Wistar rat assessed as ulcer area of >3 mm diameter at 50 mg/kg, po. The series is classed as organism-based. More on the design: dose 50 mg/kg, route oral. Particulars: in vivo.
Series [18] deals with Rattus norvegicus. Put plainly: Gastrointestinal toxicity in Wistar rat assessed as ulcer area of <1 mm diameter at 50 mg/kg, po. In kind it is organism-based. Set-up: dose 50 mg/kg, route oral. The conditions noted are these: in vivo.
Series [19] has as its system Rattus norvegicus. In words: Gastrointestinal toxicity in Wistar rat assessed as ulcer index at 50 mg/kg, po. The series is classed as organism-based. Set-up: dose 50 mg/kg, route oral. Particulars: in vivo.
The subject of series [20] is Rattus norvegicus. Put plainly: Antiinflammatory activity in Wistar rat assessed as inhibition of carrageenan-induced paw edema at 50 mg/kg, po administered 1 hr before carrageenan challenge measured after 180 mins. The series is classed as functional. Set-up: scale not given: the % may be the effect or the level left.
The test system of series [21] is Rattus norvegicus. In words: Gastrointestinal toxicity in Wistar rat assessed as ulcer area of 1-3 mm diameter at 50 mg/kg, po. The series is classed as organism-based. More on the design: dose 50 mg/kg, route oral. Particulars: in vivo.

One may read the logD as the decadic logarithm of the distribution of all forms, ionised or not, between an organic phase and buffer at a given pH. As to `CC(C)OC(=O)OCOC(=O)Cc1ccccc1Nc1c(Cl)cccc1Cl`, the solubility entry in [1], in [4], in [9], in series [10] and in [13] was “BLD” each time. In addition, the UI in the series with Rattus norvegicus [2] was 40. Besides, the figures for the logD in the series “physchem [3]” and in the series “physchem [12]” were 3.9 and 2.46, respectively. The Activity was 40.88% in the series on Rattus norvegicus [5], 5.71% in the series on Rattus norvegicus [6], 2.86% in the series on Rattus norvegicus [11] and 91.4% in the series with Rattus norvegicus [15]. In series [7], the remaining at 0.5 h amounted to 2.2%. Besides, the results for the remaining at 1 h in series [8] and in [16] were 1.2% and 0%, respectively. The remaining at 2 h in series [14] was determined as 0%.

For `CC(=O)OCCOC(=O)Cc1ccccc1Nc1c(Cl)cccc1Cl`, the solubility entry in [1], in [4], in series [9], in [10] and in series [13] was “BLD” in each case. Besides, the UI with Rattus norvegicus [2] is 8. Also, the logD in the series “physchem [3]” is 4.33; in “physchem [12]”, 4.57. For the same molecule, the Activity in the series on Rattus norvegicus [5] was 47.51%; with Rattus norvegicus [15], 100%. Moreover, the remaining at 0.5 h in series [7] was determined as 0%. The remaining at 1 h in series [8] and in series [16] was 0% in each case. Besides, the remaining at 2 h in series [14] came to 0%.

As for `O=C([O-])Cc1ccccc1Nc1c(Cl)cccc1Cl.[Na+]` [DICLOFENAC SODIUM], the Activity turned out to be 6% in the series with Rattus norvegicus [17], 80% with Rattus norvegicus [18], 49.17% with Rattus norvegicus [20] and 14% in the series on Rattus norvegicus [21]. For the same molecule, the remaining at 0.5 h in [7] was 84.4%. Also, the remaining at 1 h in series [8] is 88.8%; in [16], 86.2%. In addition, the UI with Rattus norvegicus [19] was determined as 63. Besides, the remaining at 2 h in series [14] stood at 69.4%.

Consider `CC(C)(C)C(=O)OCOC(=O)Cc1ccccc1Nc1c(Cl)cccc1Cl`, for which the solubility result in series [1], in series [4], in series [9], in series [10] and in [13] was “BLD” each time. For the same molecule, in the series on Rattus norvegicus [2], the UI is 6. For the same molecule, the logD in “physchem [3]” worked out at 4.08; in the series “physchem [12]”, 3.72. For the same molecule, the Activity was found to be 56.33% in the series on Rattus norvegicus [5] and 100% with Rattus norvegicus [15]. The remaining at 0.5 h in series [7] came out at 2.5%. Besides, the remaining at 1 h in series [8] and in series [16] was 0% each time. The remaining at 2 h in series [14] was determined as 0%.
